In patent US8796245B2 (TetraPhase Pharmaceuticals, Inc., priority 2008, dated 2014) one finds MIC and MIC SA101 29213 data, which are given here for 7 compounds.

Holding throughout (type): cell-based
Test [1] has as its system S. aureus ATCC 29213 (SA101, MSSA). The test is described as follows: Minimum inhibitory concentration assay, SA101. To be noted: for MIC: Staphylococcus aureus, S. aureus ATCC 29213, MSSA control, read-out: MICs SA101; for MIC SA101 29213: control compounds, numeric MIC, 0.016 means 0.016 or lower. The procedure:
(§1) Frozen bacterial strains were thawed and subcultured onto Mueller Hinton Broth (MHB) or other appropriate media (Streptococcus requires blood and Haemophilus requires hemin and NAD). Following incubation overnight, the strains were subcultured onto Mueller Hinton Agar and again incubated overnight. […] Isolated colonies were selected to prepare a starting inoculum equivalent to a 0.5 McFarland standard. The starting inoculum was diluted 1:125 using MHB for further use. Test compounds were prepared by dilution in sterile water to a final concentration of 5.128 mg/mL. Antibiotics (stored frozen, thawed and used within 3 hours of thawing) and compounds were further diluted to the desired working concentrations.
(§2) The assays were run as follows. Fifty μL of MHB was added to wells 2-12 of a 96-well plate. One hundred […] of appropriately diluted antibiotics was added to well 1. Fifty μL of antibiotics was removed from well 1 and added to well 2 and the contents of well 2 mixed by pipetting up and down five times. Fifty μL of the mixture in well 2 was removed and added to well 3 and mixed as above. Serial dilutions were continued in the same manner through well 12. Fifty μL was removed from well 12 so that all contained 50 μL. Fifty μL of the working inoculum was then added to all test wells. A growth control well was prepared by adding 50 μL of working inoculum and 50 μL of MHB to an empty well. The plates were then incubated at 37° C. overnight, removed from the incubator and each well was read on a plate reading mirror. The lowest concentration (MIC) of test compound that inhibited the growth of the bacteria was recorded.

Test [2] concerns S. aureus ATCC 13709 (SA100, MSSA, Smith strain). The test is described as follows: Minimum inhibitory concentration assay, SA100. To be noted: Staphylococcus aureus; S. aureus ATCC 13709, MSSA Smith strain; read-out: MICs SA100. The procedure: as §1, §2
In test [3] the test system is S. aureus SA161 (tet resistant: tet(M) ribosomal protection). The test is described as follows: Minimum inhibitory concentration assay, SA161. The note with it: Staphylococcus aureus, read-out: MICs SA161. On the procedure:
as §1, §2

Test [4] relates to E. coli EC155 (tet resistant: tetA efflux). In words: microbe, parasite or virus in culture. The procedure:
as §1, §2

Test [5] concerns K. pneumoniae KP153 (tet resistant: tetA efflux). The test is described as follows: microbe, parasite or virus in culture. The note with it: Klebsiella pneumoniae, read-out: MICs KP153. On the procedure:
as §1, §2

Test [6] deals with S. aureus SA158 (tet resistant: tetK efflux). The test is described as follows: microbe, parasite or virus in culture. The note with it: Staphylococcus aureus, read-out: MICs SA158. On the procedure:
as §1, §2

In test [7] the test system is E. faecalis ATCC 29212 (EF103). The test is described as follows: Minimum inhibitory concentration assay, EF103. The note with it: Enterococcus faecalis, ATCC29212, read-out: MICs EF103. On the procedure: as §1, §2
The test system of test [8] is E. faecalis EF159 (tet resistant: tetM). In words: Minimum inhibitory concentration assay, EF159. The note with it: Enterococcus faecalis, read-out: MICs EF159. On the procedure:
as §1, §2

Test [9] relates to S. pneumoniae ATCC 49619 (SP106). In words: Minimum inhibitory concentration assay, SP106. The note with it: Streptococcus pneumoniae, ATCC49619; S. pneumoniae ATCC 49619, wt; read-out: MICs SP106. On the procedure: as §1, §2
Test [10] has as its system S. pneumoniae SP160 (tet resistant: tet M). In words: Minimum inhibitory concentration assay, SP160. The note with it: Streptococcus pneumoniae, read-out: MICs SP160. The procedure:
as §1, §2

For test [11], the system named is E. coli ATCC 25922 (EC107). The test is described as follows: Minimum inhibitory concentration assay, EC107. The note with it: Escherichia coli, ATCC25922; E. coli ATCC 25922, wt; read-out: MICs EC107. On the procedure: as §1, §2
The test system of test [12] is A. baumanii ATCC 19606 (AB110). The test is described as follows: Minimum inhibitory concentration assay, AB110. The procedure:
as §1, §2

For test [13], the system named is P. aeruginosa ATCC 27853 (PA111). In words: Minimum inhibitory concentration assay, PA111. The procedure: as §1, §2
Test [14] concerns E. cloacae ATCC 13047 (EC108). The test is described as follows: Minimum inhibitory concentration assay, EC108. The procedure: as §1, §2
Test [15] relates to K. pneumoniae ATCC 13883 (KP109). In words: Minimum inhibitory concentration assay, KP109. To be noted: Klebsiella pneumoniae, ATCC13883; K. pneumoniae ATCC 13883, wt; read-out: MICs KP109. The procedure:
as §1, §2

[16] abbreviates: Escherichia coli, E. coli tet resistant: tetA (efflux), read-out: MICs EC155.
The mark [17] stands for this setting: Acinetobacter baumannii, ATCC19606, A. baumanii ATCC 19606, wt, read-out: MICs AB110.
Where [18] appears, read: Pseudomonas aeruginosa, ATCC27853, P. aeruginosa ATCC 27853, wt, read-out: MICs PA111.
The mark [19] stands for this setting: Enterobacter cloacae, ATCC13047, E. cloacae ATCC 13047, wt, read-out: MICs EC108.
Where [20] appears, read: EC155 tetA, control compounds, numeric.
Setting [21] is: AB110, control compounds, numeric.
Where [22] appears, read: PA111, control compounds, numeric.
[23] abbreviates: EC108, control compounds, numeric.

In brackets after ≈: the same amount, converted by molar mass. Where two headings read alike, the source gives them in different places.

With `CCN(CC)CC(=O)Nc1cc(F)c2c(c1O)C(=O)C1=C(O)[C@]3(O)C(=O)C(C(N)=O)=C(O)[C@@H](N(C)C)[C@@H]3C[C@@H]1C2` [Compound 25], the MIC is 0.125 µg/mL (≈ 0.223 µM) in test [1]; 0.125 µg/mL (≈ 0.223 µM) in [2]; 0.125 µg/mL (≈ 0.223 µM) in [3]; 8 µg/mL (≈ 14.3 µM) in test [4] (setting [16]); 8 µg/mL (≈ 14.3 µM) in [5]; 0.0313 µg/mL (≈ 0.0558 µM) in [6]. The MIC in [7] was at most 0.0156 µg/mL; in test [8], 0.0625 µg/mL (≈ 0.111 µM); in test [9], at most 0.0156 µg/mL; in test [10], at most 0.0156 µg/mL; in test [11] it was 0.5 µg/mL (≈ 0.892 µM); in [12] (setting [17]), 0.125 µg/mL (≈ 0.223 µM). Moreover, the figures for the MIC in test [13] (setting [18]), in test [14] (setting [19]) and in test [15] were 32 µg/mL (≈ 57.1 µM), 2 µg/mL (≈ 3.57 µM) and 2 µg/mL (≈ 3.57 µM), respectively.
In the case of `CN(C)[C@@H]1C(O)=C(C(N)=O)C(=O)[C@@]2(O)C(O)=C3C(=O)c4c(O)c(NC(=O)CN5CC[C@H](F)C5)cc(F)c4C[C@H]3C[C@@H]12` [Compound 36], the MIC in [1] is 0.25 µg/mL (≈ 0.434 µM); in test [2], 0.5 µg/mL (≈ 0.867 µM); in test [3], 0.5 µg/mL (≈ 0.867 µM); in [4] (setting [16]), 32 µg/mL (≈ 55.5 µM); in [5] it was 32 µg/mL (≈ 55.5 µM); in [6], 1 µg/mL (≈ 1.73 µM). In addition, the MIC in [7] was 0.25 µg/mL (≈ 0.434 µM); in [8], 0.25 µg/mL (≈ 0.434 µM); in test [9] it was at most 0.0156 µg/mL; in test [10], at most 0.0156 µg/mL; in test [11] it was 2 µg/mL (≈ 3.47 µM); in [12] (setting [17]), 0.125 µg/mL (≈ 0.217 µM). Moreover, the MIC in test [13] (setting [18]) was over 32 µg/mL; in test [14] (setting [19]), 4 µg/mL (≈ 6.94 µM); in test [15], 4 µg/mL (≈ 6.94 µM).
`CN(C)[C@@H]1C(O)=C(C(N)=O)C(=O)[C@@]2(O)C(O)=C3C(=O)c4c(O)c(NC(=O)CNC5CCCC5)cc(F)c4C[C@H]3C[C@@H]12` [Compound 18]: the MIC in test [1] is 0.0625 µg/mL (≈ 0.109 µM); in test [2], at most 0.0156 µg/mL; in [3], 0.0625 µg/mL (≈ 0.109 µM); in [4] (setting [16]), 4 µg/mL (≈ 6.99 µM); in [5] it was 4 µg/mL (≈ 6.99 µM); in test [6], 0.125 µg/mL (≈ 0.218 µM). Further, the MIC is at most 0.0156 µg/mL in test [7]; 0.0313 µg/mL (≈ 0.0547 µM) in [8]; at most 0.0156 µg/mL in test [9]; at most 0.0156 µg/mL in test [10]; 0.125 µg/mL (≈ 0.218 µM) in [11]; 0.25 µg/mL (≈ 0.437 µM) in test [12] (setting [17]). The MIC in [13] (setting [18]) came to 16 µg/mL (≈ 27.9 µM); in test [14] (setting [19]), 0.5 µg/mL (≈ 0.873 µM); in [15], 0.5 µg/mL (≈ 0.873 µM).
For the compound `COC[C@@H]1CCCN1CC(=O)Nc1cc(F)c2c(c1O)C(=O)C1=C(O)[C@]3(O)C(=O)C(C(N)=O)=C(O)[C@@H](N(C)C)[C@@H]3C[C@@H]1C2` [Compound 41], the MIC came to 1 µg/mL (≈ 1.66 µM) in test [1]; 1 µg/mL (≈ 1.66 µM) in [2]; 2 µg/mL (≈ 3.32 µM) in test [3]; 16 µg/mL (≈ 26.6 µM) in [4] (setting [16]); 16 µg/mL (≈ 26.6 µM) in test [5]; 1 µg/mL (≈ 1.66 µM) in test [6]. Further, the MIC came to 1 µg/mL (≈ 1.66 µM) in test [7]; 2 µg/mL (≈ 3.32 µM) in test [8]; 0.125 µg/mL (≈ 0.207 µM) in test [9]; 0.125 µg/mL (≈ 0.207 µM) in [10]; 4 µg/mL (≈ 6.64 µM) in test [11]; 0.5 µg/mL (≈ 0.83 µM) in test [12] (setting [17]). Moreover, the MIC in test [13] (setting [18]) was over 32 µg/mL; in test [14] (setting [19]) it was 16 µg/mL (≈ 26.6 µM); in [15], 8 µg/mL (≈ 13.3 µM).
The compound `CN(C)c1cc(NC(=O)CNC(C)(C)C)c(O)c2c1C[C@H]1C[C@H]3[C@H](N(C)C)C(O)=C(C(N)=O)C(=O)[C@@]3(O)C(O)=C1C2=O` [Tigecycline] registered an MIC SA101 29213 in test [1] of 0.06 µg/mL (≈ 0.102 µM). Moreover, the MIC in test [4] (setting [20]) amounted to 0.5 µg/mL (≈ 0.854 µM); in test [12] (setting [21]), 0.25 µg/mL (≈ 0.427 µM); in test [13] (setting [22]), 8 µg/mL (≈ 13.7 µM); in test [14] (setting [23]) it was 0.25 µg/mL (≈ 0.427 µM).
For the compound `CN(C)[C@@H]1C(O)=C(C(N)=O)C(=O)[C@@]2(O)C(O)=C3C(=O)c4c(O)cccc4C[C@H]3C[C@@H]12` [Sancycline], in test [1], the MIC SA101 29213 is 0.5 µg/mL (≈ 1.21 µM). In addition, the MIC is 32 µg/mL (≈ 77.2 µM) in [4] (setting [20]), 0.25 µg/mL (≈ 0.603 µM) in test [12] (setting [21]), over 32 µg/mL in test [13] (setting [22]) and 8 µg/mL (≈ 19.3 µM) in test [14] (setting [23]).
As for `CN(C)c1ccc(O)c2c1C[C@H]1C[C@H]3[C@H](N(C)C)C(O)=C(C(N)=O)C(=O)[C@@]3(O)C(O)=C1C2=O` [Minocycline], in [1], the MIC SA101 29213 worked out at 0.06 µg/mL (≈ 0.131 µM). For the same compound, the MIC in test [12] (setting [21]) was determined as 0.06 µg/mL (≈ 0.131 µM); in [13] (setting [22]), 16 µg/mL (≈ 35 µM); in test [14] (setting [23]) it was 2 µg/mL (≈ 4.37 µM).
